Reference: patent US20250319046A1, “PHENYLALANINE-BASED LAT1 INHIBITORS AND USES THEREOF” (MAXYMUNE THERAPEUTICS, INC., priority 2024, published 2025)
Structures can show the parent of a compound that is named as a salt. Where two headings read alike, the source gives them in different places.

Columns and labels:
LAT1 = LAT1 (Homo sapiens (Human), UniProt Q01650); test: LAT1 uptake inhibition assay: [3H]-gabapentin competition uptake in LN229 cells; format: cell-based; settings: [3H]-gabapentin uptake
Sequence of LAT1 (Q01650 whole entry): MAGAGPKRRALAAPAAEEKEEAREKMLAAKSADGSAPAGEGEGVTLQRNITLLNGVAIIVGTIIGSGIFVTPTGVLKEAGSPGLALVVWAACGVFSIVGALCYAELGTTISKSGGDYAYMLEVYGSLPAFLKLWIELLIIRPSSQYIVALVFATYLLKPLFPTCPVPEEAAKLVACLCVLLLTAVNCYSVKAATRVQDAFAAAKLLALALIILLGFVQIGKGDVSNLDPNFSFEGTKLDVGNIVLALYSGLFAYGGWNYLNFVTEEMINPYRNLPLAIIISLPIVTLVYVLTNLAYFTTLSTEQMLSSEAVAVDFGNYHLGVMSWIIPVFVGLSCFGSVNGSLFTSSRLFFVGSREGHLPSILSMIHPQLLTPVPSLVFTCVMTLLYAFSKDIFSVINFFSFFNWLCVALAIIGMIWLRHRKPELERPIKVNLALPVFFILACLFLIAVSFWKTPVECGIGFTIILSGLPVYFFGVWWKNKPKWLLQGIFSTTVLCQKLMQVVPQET
Sequence of LAT1 (P08195 whole entry partner): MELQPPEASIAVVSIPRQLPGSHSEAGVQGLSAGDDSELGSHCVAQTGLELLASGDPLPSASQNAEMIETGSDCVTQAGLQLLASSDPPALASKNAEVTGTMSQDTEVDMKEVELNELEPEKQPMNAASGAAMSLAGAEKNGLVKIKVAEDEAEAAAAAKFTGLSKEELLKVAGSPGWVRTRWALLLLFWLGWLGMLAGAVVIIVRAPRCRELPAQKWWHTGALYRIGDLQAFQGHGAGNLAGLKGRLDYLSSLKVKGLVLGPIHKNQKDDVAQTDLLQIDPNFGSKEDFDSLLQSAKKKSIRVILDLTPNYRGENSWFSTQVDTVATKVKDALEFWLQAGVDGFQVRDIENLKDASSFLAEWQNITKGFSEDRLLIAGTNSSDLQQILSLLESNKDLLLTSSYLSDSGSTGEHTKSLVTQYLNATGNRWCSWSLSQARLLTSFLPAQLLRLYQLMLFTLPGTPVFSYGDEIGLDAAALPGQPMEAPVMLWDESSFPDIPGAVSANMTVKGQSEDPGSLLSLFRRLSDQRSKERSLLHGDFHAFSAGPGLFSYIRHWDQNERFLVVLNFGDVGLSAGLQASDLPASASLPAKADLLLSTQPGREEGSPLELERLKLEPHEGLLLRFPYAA
Procedure, shortened: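 LN229 cells grown 3 days, then incubated 15 min in PBS with 50,000 cpm [3H]-gabapentin plus increasing compound concentrations (≥triplicate); cell-retained radioactivity counted by scintillation. Background (10 mM unlabelled gabapentin) subtracted, data normalized to DMSO control and fitted to Michaelis-Menten equation.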

LN229 cells = test: Amino acid starvation assay: antiproliferation assay with LN229 cells (CellTiter-Glo); format: cell-based; settings: F12K medium, six days
Description: Amino Acid Starvation Assay
The ability of compounds to inhibit amino acid uptake interact with LAT1 was measured using an antiproliferation assay with LN229 cells (ATCC®). LN229 cells were cultured in DMEM medium (VWR International). Two (2)×10^3 (2,000) cells/well were plated in clear bottom 96-well plates (CellBIND®, Corning 3340) and were allowed to attach overnight. The next day, cells were washed once with PBS buffer (VWR International). F12K medium ([…]) (VWR International) with increasing concentrations of test compounds in at least triplicate was added. Cells were incubated for six (6) days at 37° C. and 5% CO2. At end of the assay, 140 μL of supernatant medium were removed from each well and 60 μL of CellTiter-Glo® (Promega) were added. Cell lysis was induced by placing the plates for three (3) minutes on an orbital shaker. Plates were incubated for 10 min at 25° C. to stabilize the luminesce signal. Luminescence was recorded using an EnSpire® Multimode Plate Reader (Perkin Elmer). Background (luminescence from wells incubated in the presence of 100 µM of commercial LAT1 inhibitor JPH203 (MedKoo) was subtracted, and data were normalized to the DMSO control (proliferation in the absence of any competitor). Data were fitted to the Michaelis-Menten equation using GraphPad Prism (Version 8.2.0).

[1] = 15 min incubation in PBS, read-out: IC50, the concentration of test compound at which the [3H]-GP uptake was inhibited by 50%
[2] = Table 1, read-out: LAT1 inhibition IC50 (nM ± SE)
[3] = Homo sapiens, LN-229, 144 h, Table 1, read-out: Anti-proliferation LC50 (μM ± SE)
[4] = Homo sapiens, LN-229, 144 h, read-out: LC50, the concentration of test compound at which the proliferation was inhibited by 50%

IC50 (LAT1; [1]) [nM] | IC50 (LAT1; [2]) [nM] | IC50 (LAT1; read-out: IC50 in the LAT1 uptake inhibition assay) [nM] | SMILES | CC50 (LN229 cells; [3]) [µM] | CC50 (LN229 cells; [4]) [µM] | CC50 (LN229 cells; Table 1, read-out: Anti-proliferation LC50 (μM ± SE)) [µM]
20 to 100 | 100 ± 20 | – | Cc1ccc(NS(=O)(=O)c2ccc(C(C)(C)C)cc2)cc1C[C@H](N)C(=O)O [Compound 87, (S)-2-Amino-3-(5-((4-(tert-butyl)phenyl)sulfonamido)-2-methylphenyl)propanoic Acid] | 100 ± 20 | ≥ 100 | –
20 to 100 | 25 ± 8 | – | Cc1ccc(S(=O)(=O)Nc2ccc(-c3ccccc3)cc2)cc1C[C@H](N)C(=O)O [Compound 40, (S)-3-(5-(N-([1,1′-Biphenyl]-4-yl)sulfamoyl)-2-methylphenyl)-2-aminopropanoic Acid] | 60 ± 20 | 30 to 100 | –
20 to 100 | 50 ± 10 | – | CC(C)c1ccc(NS(=O)(=O)c2cccc3c(N(C)C)cccc23)cc1C[C@H](N)C(=O)O [Compound 21, (S)-2-Amino-3-(5-((5-(dimethylamino)naphthalene)-1-sulfonamido)-2-isopropylphenyl)propanoic Acid] | 49 ± 1 | 30 to 100 | –
20 to 100 | 100 ± 40 | – | Cc1ccc(NS(=O)(=O)c2ccccc2)cc1C[C@H](N)C(=O)O [Compound 10, (S)-2-Amino-3-(2-methyl-5-(phenylsulfonamido)phenyl)propanoic Acid] | 70 ± 20 | 30 to 100 | –
≤ 20 | 9 ± 3 | – | Cc1ccc(S(=O)(=O)Nc2cccc(Br)c2)cc1C[C@H](N)C(=O)O [Compound 76, (S)-2-Amino-3-(5-(N-(3-bromophenyl)sulfamoyl)-2-methylphenyl)propanoic Acid] | 11 ± 1 | < 30 | –
20 to 100 | 56 ± 9 | – | CCCCNS(=O)(=O)c1ccc(C)c(C[C@H](N)C(=O)O)c1 [Compound 41, (S)-2-Amino-3-(5-(N-butylsulfamoyl)-2-methylphenyl)propanoic Acid] | 36 ± 10 | 30 to 100 | –
20 to 100 | 24 ± 9 | – | Cc1ccc(S(=O)(=O)Nc2cccc3ccccc23)cc1C[C@H](N)C(=O)O [Compound 39, (S)-2-Amino-3-(2-methyl-5-(N-(naphthalen-1-yl)sulfamoyl)phenyl)propanoic Acid] | 32 ± 2 | 30 to 100 | –
– | – | 19 ± 6 | Nc1cc(COc2c(Cl)cc(C[C@H](N)C(=O)O)cc2Cl)c2oc(-c3ccccc3)nc2c1 [JPH203, (S)-2-Amino-3-(4-((5-amino-2-phenylbenzo[d]oxazol-7-yl)methoxy)-3,5-dichlorophenyl)propanoic Acid, reference compound] | – | 20 ± 10 | –
20 to 100 | – | – | Cc1ccc(S(=O)(=O)Nc2ccc(Cl)cc2)cc1C[C@H](N)C(=O)OC(C)(C)C [Compound 82, tert-Butyl (S)-2-amino-3-(5-(N-(4-chlorophenyl)sulfamoyl)-2-methylphenyl)propanoate] | – | ≥ 100 | –
≤ 20 | 20 ± 4 | – | Cc1ccc(S(=O)(=O)NCc2ccccc2)cc1C[C@H](N)C(=O)O [Compound 30, (S)-2-Amino-3-(5-(N-benzylsulfamoyl)-2-methylphenyl)propanoic Acid] | 38 ± 2 | 30 to 100 | –
20 to 100 | 40 ± 10 | – | Cc1ccc(NS(=O)(=O)c2cccc(Br)c2)cc1C[C@H](N)C(=O)O [Compound 29, (S)-2-Amino-3-(5-((3-bromophenyl)sulfonamido)-2-methylphenyl)propanoic Acid] | 90 ± 30 | 30 to 100 | –
20 to 100 | 40 ± 10 | – | Cc1ccc(NS(=O)(=O)c2cccc(-c3ccccc3)c2)cc1C[C@H](N)C(=O)O [Compound 38, (S)-3-(5-([1,1′-Biphenyl]-3-sulfonamido)-2-methylphenyl)-2-aminopropanoic Acid] | 52 ± 2 | 30 to 100 | –
20 to 100 | 80 ± 10 | – | N[C@@H](Cc1cccc(S(=O)(=O)Nc2ccc(Cl)cc2)c1)C(=O)O [Compound 79, (S)-2-Amino-3-(3-(N-(4-chlorophenyl)sulfamoyl)phenyl)propanoic Acid] | 100 ± 20 | ≥ 100 | –
20 to 100 | 80 ± 20 | – | Cc1ccc(S(=O)(=O)Nc2cccc3c(N(C)C)cccc23)cc1C[C@H](N)C(=O)O [Compound 49, (S)-2-Amino-3-(5-(N-(5-(dimethylamino)naphthalen-1-yl)sulfamoyl)-2-methylphenyl)propanoic Acid] | 100 ± 10 | ≥ 100 | –
20 to 100 | 60 ± 10 | – | Cc1ccc(S(=O)(=O)NC2CCCCC2)cc1C[C@H](N)C(=O)O [Compound 53, (S)-2-Amino-3-(5-(N-cyclohexylsulfamoyl)-2-methylphenyl)propanoic Acid] | 100 ± 10 | ≥ 100 | –
≤ 20 | 10 ± 3 | – | COc1ccc(NS(=O)(=O)c2ccc(C)c(C[C@H](N)C(=O)O)c2)cc1 [Compound 44, (S)-2-Amino-3-(5-(N-(4-methoxyphenyl)sulfamoyl)-2-methylphenyl)propanoic Acid] | 20 ± 6 | < 30 | –
≤ 20 | 12 ± 4 | – | Cc1ccc(S(=O)(=O)Nc2ccc(Br)cc2)cc1C[C@H](N)C(=O)O [Compound 77, (S)-2-Amino-3-(5-(N-(4-bromophenyl)sulfamoyl)-2-methylphenyl)propanoic Acid] | 13 ± 1 | < 30 | –
≤ 20 | 10 ± 1 | – | CC(C)c1ccc(S(=O)(=O)Nc2ccc(Cl)cc2)cc1C[C@H](N)C(=O)O [Compound 86, (S)-2-Amino-3-(5-(N-(4-chlorophenyl)sulfamoyl)-2-isopropylphenyl)propanoic Acid] | 4 ± 0.7 | < 30 | –
≤ 20 | 12 ± 2 | – | Cc1ccc(S(=O)(=O)Nc2ccc(Cl)cc2)cc1C[C@H](N)C(=O)O [Compound 52, (S)-2-Amino-3-(5-(N-(4-chlorophenyl)sulfamoyl)-2-methylphenyl)propanoic Acid] | 9.7 ± 0.7 | < 30 | –

SMILES | IC50 (LAT1; [1]) [nM] | IC50 (LAT1; [2]) [nM] | IC50 (LAT1; read-out: IC50 in the LAT1 uptake inhibition assay) [nM] | CC50 (LN229 cells; [3]) [µM] | CC50 (LN229 cells; [4]) [µM] | CC50 (LN229 cells; Table 1, read-out: Anti-proliferation LC50 (μM ± SE)) [µM]
Cc1ccc(S(=O)(=O)Nc2ccccc2)cc1C[C@H](N)C(=O)O [Compound 35, (S)-2-Amino-3-(2-methyl-5-(N-phenylsulfamoyl)phenyl)propanoic Acid Hydrochloride] | – | 30 ± 8 | – | – | – | 40 ± 10
